Patent publication US20040242591A1, “Oxazolidinone derivatives as pontential antimicrobials” (priority 2001, published 2004)

Experiments:
S. pneum AB 34 = experiment: MIC by agar incorporation method, S. pneum AB 34; format: cell-based, Streptococcus pneumoniae; parameters: unit not given here; conditions: Mueller Hinton agar, 10^4 CFU/spot, 18 hours
MRSA 33 = experiment: MIC by agar incorporation method, MRSA 33; format: cell-based, Methicillin Resistant Staphylococcus aureus; parameters: unit not given here; conditions: Mueller Hinton agar, 10^4 CFU/spot, 24 hours
Ent. faecalis ATCC 29212 = experiment: MIC by agar incorporation method, E.faecalis 29212; format: cell-based, Enterococcus faecalis; parameters: unit not given here; conditions: Mueller Hinton agar, 10^4 CFU/spot, 18 hours
Text: 3) Ent. faecalis ATCC 29212—Enterococcus faecalis ATCC 29212

MRSA 15187 = experiment: MIC by agar incorporation method, MRSA 15187; format: cell-based, Methicillin Resistant Staphylococcus aureus; parameters: unit not given here; conditions: Mueller Hinton agar, 10^4 CFU/spot, 24 hours
Text: 2) MRSA 15187—Methicillin Resistant Staphylococcus aureus

MRSA 562 = experiment: MIC by agar incorporation method, MRSA 562; format: cell-based, Methicillin Resistant Staphylococcus aureus; parameters: unit not given here; conditions: Mueller Hinton agar, 10^4 CFU/spot, 24 hours
Strep. pne. ATCC 6303 = experiment: MIC by agar incorporation method, S. pneum 6303; format: cell-based, Streptococcus pneumoniae; conditions: Mueller Hinton agar, 10^4 CFU/spot, 18 hours
Text: 5) Strep. pne. ATCC 6303—Streptococcus pneumoniae ATCC 6303

VRE 6A = experiment: MIC by agar incorporation method, VRE 6A; format: cell-based, Enterococcus faecium; parameters: unit not given here; conditions: Mueller Hinton agar, 10^4 CFU/spot, 18 hours
Text: 4) Ent. faecium […]—Enterococcus faecium 6A Van®, Cipro®

S.aureus ATCC 25923 = experiment: MIC by agar incorporation method, S.aureus 25923; format: cell-based, Staphylococus aureus; parameters: unit not given here; conditions: Mueller Hinton agar, 10^4 CFU/spot, 18 hours
Strep.pyog. ATCC 19615 = experiment: MIC by agar incorporation method, S.pyogenes 19615; format: cell-based, Streptococcus pyogenes; parameters: unit not given here; conditions: Mueller Hinton agar, 10^4 CFU/spot, 18 hours
Text: 6) Strep.pyog. ATCC 19615—Streptococcus pyogenes

Compound	In Vitro (MIC) S. pneum AB 34 (S. pneum AB 34)	In Vitro (MIC) MRSA 33 (MRSA 33)	In Vitro (MIC) E.faecalis 29212 (Ent. faecalis ATCC 29212)	In Vitro (MIC) MRSA 15187 (MRSA 15187)	In Vitro (MIC) MRSA 562 (MRSA 562)	In Vitro (MIC) S. pneum 6303 (Strep. pne. ATCC 6303) [µg/mL]	In Vitro (MIC) VRE 6A (VRE 6A)	In Vitro (MIC) S.aureus 25923 (S.aureus ATCC 25923)	In Vitro (MIC) S.pyogenes 19615 (Strep.pyog. ATCC 19615)
CC(=O)NC[C@H]1CN(c2ccc(N3CCN(C(C)c4ccc([N+](=O)[O-])o4)CC3)c(F)c2)C(=O)O1 (stereo partly drawn) [Compound No. 101]	2	1	0.125	1	1	1	0.25	1	0.06
CC(=O)NC[C@H]1CN(c2ccc(N3CCN(C(=O)c4oc([N+](=O)[O-])cc4C)CC3)c(F)c2)C(=O)O1 [Compound No. 37, (S)-N-[[3-[3-Fluoro-4-[N-1-[4-{2-furoyl-(3-methyl-5-nitro)}]piperazinyl]phenyl]-2-oxo-5-oxazolidinyl]methyl]acetamide]	0.125	0.5	0.25	0.5	0.5	0.25	0.5	0.5	<0.06
CC(=O)NC[C@H]1CN(c2ccc(N3CC4C(CNCc5ccc([N+](=O)[O-])o5)C4C3)c(F)c2)C(=O)O1 (stereo partly drawn) [Compound No. 99, (S)-N-[[3-[3-Fluoro-4[N-1-[3-{N-2-furyl-(5-nitro)methyl}-aminomethyl]-3-azabicyclo[3.1.0]hexane]phenyl]-2-oxo-5-oxazolidinyl]methyl]acetamide]	4	>8	>8	>8	>8	4	8	>8	2
CC(=O)NC[C@H]1CN(c2ccc(N3CCC(NCc4ccc([N+](=O)[O-])s4)CC3)c(F)c2)C(=O)O1 [Compound No. 84, (S)-N-[[3-[3-Fluoro-4-[4-{N-thienyl-(5-nitro)methyl}-aminopiperidine-1-yl]phenyl]-2-oxo-5-oxazolidinyl]methyl]acetamide]	2	2	1	2	2	2	2	2	1
CC(=O)NC[C@H]1CN(c2ccc(N3CCN(Cc4cc(C#N)c([N+](=O)[O-])s4)CC3)c(F)c2)C(=O)O1 [Compound No. 6]	1	2	4	2	2	1	8	2	1
